Assay results taken from US8916551B2, “Heterocyclic compound and use thereof” (Takeda Pharmaceutical Company Limited, priority 2010, dated 2014).

Molecular target: T1, AMPA receptor (human GluR1 flip/stargazin expressed in CHO-K1 cells) (Homo sapiens, UniProt P42261)
T1 construct: expressed in transfected cells; host or cells: CHO-K1
Experiment: AMPA receptor function enhancing activity using calcium influx as index
Type: cell-based
Settings: 100% = 3 mM glutamic acid + 300 μM cyclothiazide, 0% = 3 mM glutamic acid only
From the text: Human GluR1 flip cDNA was amplified by PCR using forward primer […] (SEQ ID NO: 1) and reverse primer […] (SEQ ID NO: 2) artificially synthesized using human brain-derived cDNA (BD Bio science) as a template. The amplified product was digested with restriction enzymes EcoRI, NotI (TAKARA SHUZO CO. LTD.), and incorporated into the same site of pcDNA3.1(+) (Invitrogen) to construct pcDNA3.1(+)/human GluR1 flip gene. Human stargazin cDNA was amplified by PCR using forward primer […] (SEQ ID NO: 3) and reverse primer […] (SEQ ID NO: 4) artificially synthesized using human hippocampus cDNA as a template. The amplified product was digested with restriction enzymes XhoI, BamHI (TAKARA SHUZO CO. LTD.), and incorporated into the same site of pcDNA3.1(−) (Invitrogen) to construct pcDNA3.1 Zeo(−)/human stargazin gene.
CHO-K1 cells passaged in a culture medium (Ham's F12 medium (Invitrogen) added with 10% inactivated fetal bovine serum (Morgate) and penicillin, streptomycin (Invitrogen)) were detached with 0.05% trypsin, 0.53 mM EDTA (Invitrogen) diluted with D-PBS(−). The detached cells were suspended in a culture medium, and recovered by a centrifugation operation at 1,000 rpm. The recovered cells were suspended again in D-PBS(−), and added to a 0.4 cm electroporation cuvette (BioRad). pcDNA3.1(+)/human GluR1 flip gene (5 μg) and pcDNA3.1 Zeo(−)/human stargazin gene (15 μg) were added, and the mixture was introduced into CHO-K1 cells using Gene Pulser II (BioRad) under the conditions of 950 μFd, […]. The introduced cells were cultured overnight in a culture medium and, the next day, plated in a 96 well plate at 250 cells/well using a selection medium (culture medium added with Zeocin (Invitrogen) to 250 μg/mL). Clones showing drug resistance were selected, and GluR1 flip/stargazin expressing clones were selected by an assay method using calcium influx as an index as shown below.
CHO-K1/GluR1 flip/stargazin expressing cells were plated on a 96 well black transparent bottom plate (Costar) at 2×10^4 cells/well, and cultured in a 37° C., CO2 incubator (SANYO Electric Co., Ltd.) for 2 days. The medium in the cell plate was removed, and assay buffer A (D-MEM (Invitrogen), 0.1% BSA (Serogical Protein), 20 mM HEPES (Invitrogen)) was added at 50 μL/well. A calcium indicator (Calcium 4 Assay Kit, Invitrogen) added with 2.5 mM probenecid (Invitrogen) was added at 50 μL/well and the well was left standing in 37° C., CO2 incubator for 1 hr. The cell plate was set in CellLux (PerkinElmer), a mixture (50 μL) of 9 mM glutamic acid diluted with assay buffer B (HBSS (Invitrogen), 0.1% BSA, 20 mM HEPES) (final concentration 3 mM) and a test compound (test compound concentration 30 μM) was added, and the amount of change in fluorescence level in 3 min was measured. In the definition here, the amount of change in fluorescence level of well added with glutamic acid at final concentration 3 mM and 300 μM cyclothiazide (TOCRIS) is 100%, the amount of change in fluorescence level of well added only with glutamic acid at final concentration 3 mM is 0%, and the compound activity was calculated according to the following formula. activity(%)=(X−C)/(T−C)×100 T: amount of change in fluorescence level of well added with glutamic acid at final concentration 3 mM and 300 μM cyclothiazide C: amount of change in fluorescence level of well added only with glutamic acid at final concentration 3 mM X: amount of change in fluorescence level of well added with test compound

[1] = test compound 30 μM with 3 mM glutamic acid, change in fluorescence level in 3 min
[2] = test compound 30 μM with glutamic acid final 3 mM, change in fluorescence in 3 min

T1 sequence (P42261 19-906 isoform P42261-2 limits assumed): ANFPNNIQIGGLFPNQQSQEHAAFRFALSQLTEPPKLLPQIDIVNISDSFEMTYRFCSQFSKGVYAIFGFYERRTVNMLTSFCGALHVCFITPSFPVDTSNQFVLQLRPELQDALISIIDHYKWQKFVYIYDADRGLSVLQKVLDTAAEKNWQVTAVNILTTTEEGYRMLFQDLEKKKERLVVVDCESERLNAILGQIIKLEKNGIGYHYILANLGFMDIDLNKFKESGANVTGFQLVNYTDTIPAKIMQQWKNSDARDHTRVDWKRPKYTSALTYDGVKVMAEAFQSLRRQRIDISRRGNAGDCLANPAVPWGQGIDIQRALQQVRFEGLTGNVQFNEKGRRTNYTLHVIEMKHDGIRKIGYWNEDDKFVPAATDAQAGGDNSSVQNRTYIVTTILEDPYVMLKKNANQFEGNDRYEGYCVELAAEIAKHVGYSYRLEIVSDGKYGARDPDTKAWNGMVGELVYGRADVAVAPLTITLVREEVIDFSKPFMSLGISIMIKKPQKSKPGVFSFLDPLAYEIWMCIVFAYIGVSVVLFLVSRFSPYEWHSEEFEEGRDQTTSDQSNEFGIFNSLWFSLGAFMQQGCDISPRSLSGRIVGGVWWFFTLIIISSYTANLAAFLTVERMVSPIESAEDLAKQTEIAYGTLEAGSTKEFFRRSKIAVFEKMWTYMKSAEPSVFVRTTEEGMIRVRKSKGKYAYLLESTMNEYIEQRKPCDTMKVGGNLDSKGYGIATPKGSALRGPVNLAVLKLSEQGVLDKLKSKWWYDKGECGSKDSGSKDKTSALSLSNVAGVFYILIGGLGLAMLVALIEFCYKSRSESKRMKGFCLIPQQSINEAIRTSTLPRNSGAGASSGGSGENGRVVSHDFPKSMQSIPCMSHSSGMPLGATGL
T1 sequence (Q9Y698 whole entry partner): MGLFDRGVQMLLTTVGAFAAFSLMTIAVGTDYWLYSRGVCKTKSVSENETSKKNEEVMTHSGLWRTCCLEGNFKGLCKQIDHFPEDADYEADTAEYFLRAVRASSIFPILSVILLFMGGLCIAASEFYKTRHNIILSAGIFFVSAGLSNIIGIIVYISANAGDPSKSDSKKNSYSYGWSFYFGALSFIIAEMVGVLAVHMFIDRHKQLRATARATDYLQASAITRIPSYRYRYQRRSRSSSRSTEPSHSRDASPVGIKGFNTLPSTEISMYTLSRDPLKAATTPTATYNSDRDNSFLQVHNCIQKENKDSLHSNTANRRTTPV

Compound	activity (%) [1] [%]	activity (%) [2] [%]
CC1CC(c2ccc(Oc3cccc(C(C)(F)F)c3)cc2)C2=NS(=O)(=O)CCN2C1 (racemic) [Example 172, 9-{4-[3-(1,1-difluoroethyl)phenoxy]phenyl}-7-methyl-3,4,6,7,8,9-hexahydropyrido[2,1-c][1,2,4]thiadiazine 2,2-dioxide]	74	
CC1CC(c2ccc(Oc3cccc(C(C)(F)F)c3)cc2)C2=NS(=O)(=O)CCN2C1 (racemic) [Example 173, 9-{4-[3-(1,1-difluoroethyl)phenoxy]phenyl}-7-methyl-3,4,6,7,8,9-hexahydropyrido[2,1-c][1,2,4]thiadiazine 2,2-dioxide]	68	
CCC(C)c1ccc(NC(=O)C2=NC=CN3CCS(=O)(=O)N=C23)cc1 (stereo not shown) [Example 1, N-[4-(1-methylpropyl)phenyl]-3,4-dihydropyrazino[2,1-c][1,2,4]thiadiazine-9-carboxamide 2,2-dioxide]		66
O=C(Nc1ccc(C2CC2)cc1)C1=CC=CN2CCS(=O)(=O)N=C12 [Example 4, N-(4-cyclopropylphenyl)-3,4-dihydropyrido[2,1-c][1,2,4]thiadiazine-9-carboxamide 2,2-dioxide]		85
Cc1nc2cc(OC3=CC=CN4CCS(=O)(=O)N=C34)ccc2s1 [Example 24, 9-[(2-methyl-1,3-benzothiazol-5-yl)oxy]-3,4-dihydropyrido[2,1-c][1,2,4]thiadiazine 2,2-dioxide]		78
CC(C)c1ccc(CCC2=CC=CN3CCS(=O)(=O)N=C23)cc1 [Example 25, 9-{2-[4-(1-methylethyl)phenyl]ethyl}-3,4-dihydropyrido[2,1-c][1,2,4]thiadiazine 2,2-dioxide]		98
CC(C)c1ccc(C(=O)NC2=CC=CN3CCS(=O)(=O)N=C23)cc1 [Example 37, N-(2,2-dioxido-3,4-dihydropyrido[2,1-c][1,2,4]thiadiazin-9-yl)-4-(1-methylethyl)benzamide]		95
O=S1(=O)CCN2CCCC(c3ccc(Oc4ccccc4)cc3)C2=N1 (stereo not shown) [Example 43, 9-(4-phenoxyphenyl)-3,4,6,7,8,9-hexahydropyrido[2,1-c][1,2,4]thiadiazine 2,2-dioxide]		81
O=S1(=O)CCN2C=CC=C(c3ccc4ccccc4c3)C2=N1 [Example 46, 9-naphthalen-2-yl-3,4-dihydropyrido[2,1-c][1,2,4]thiadiazine 2,2-dioxide]		80
CC(C)c1ccc(/C=C/C2=CC=CN3CCS(=O)(=O)N=C23)cc1 [Example 51, 9-{(E)-2-[4-(1-methylethyl)phenyl]ethenyl}-3,4-dihydropyrido[2,1-c][1,2,4]thiadiazine 2,2-dioxide]		87
CC(C)c1ccc(COC2=CC=CN3CCS(=O)(=O)N=C23)cc1 [Example 52, 9-{[4-(1-methylethyl)benzyl]oxy}-3,4-dihydropyrido[2,1-c][1,2,4]thiadiazine 2,2-dioxide]		67
O=S1(=O)CCN2CCCC(c3ccc(-c4ccccc4)s3)C2=N1 (stereo not shown) [Example 57, 9-(5-phenylthiophen-2-yl)-3,4,6,7,8,9-hexahydropyrido[2,1-c][1,2,4]thiadiazine 2,2-dioxide]		86
COc1ccc2ccc(OC3CCCN4CCS(=O)(=O)N=C34)cc2c1 (stereo not shown) [Example 60, 9-[(7-methoxynaphthalen-2-yl)oxy]-3,4,6,7,8,9-hexahydropyrido[2,1-c][1,2,4]thiadiazine 2,2-dioxide]		63
O=S1(=O)CCN2C=CC=C(c3ccc(OC4CC4)cc3)C2=N1 [Example 70, 9-[4-(cyclopropyloxy)phenyl]-3,4-dihydropyrido[2,1-c][1,2,4]thiadiazine 2,2-dioxide]		86
CCC(CC)Oc1ccc(C2=CC=CN3CCS(=O)(=O)N=C23)cc1 [Example 72, 9-[4-(1-ethylpropoxy)phenyl]-3,4-dihydropyrido[2,1-c][1,2,4]thiadiazine 2,2-dioxide]		80
O=S1(=O)CCN2C=CC=C(c3ccc(N4CCCC4)cc3)C2=N1 [Example 80, 9-(4-pyrrolidin-1-ylphenyl)-3,4-dihydropyrido[2,1-c][1,2,4]thiadiazine 2,2-dioxide]		88
O=S1(=O)CCN2C=CC=C(c3ccc(OCc4cccc(F)c4)cc3)C2=N1 [Example 82, 9-{4-[(3-fluorobenzyl)oxy]phenyl}-3,4-dihydropyrido[2,1-c][1,2,4]thiadiazine 2,2-dioxide]		65
O=S1(=O)CCN2CCCC(c3ccc(OCc4cccc(F)c4)cc3)C2=N1 (stereo not shown) [Example 83, 9-{4-[(3-fluorobenzyl)oxy]phenyl}-3,4,6,7,8,9-hexahydropyrido[2,1-c][1,2,4]thiadiazine 2,2-dioxide]		57
O=S1(=O)CCN2C=CC=C(c3ccc(Oc4cccc(Cl)c4)cc3)C2=N1 [Example 85, 9-[4-(3-chlorophenoxy)phenyl]-3,4-dihydropyrido[2,1-c][1,2,4]thiadiazine 2,2-dioxide]		84
O=S1(=O)CCN2CCCC(c3ccc(Oc4ccccc4C(F)(F)F)cc3)C2=N1 (stereo not shown) [Example 86, 9-{4-[2-(trifluoromethyl)phenoxy]phenyl}-3,4,6,7,8,9-hexahydropyrido[2,1-c][1,2,4]thiadiazine 2,2-dioxide]		67
O=S1(=O)CCN2C=CC=C(c3ccc(O)cc3)C2=N1 [Example 87, 4-(2,2-dioxido-3,4-dihydropyrido[2,1-c][1,2,4]thiadiazin-9-yl)phenol]		51
O=S1(=O)CCN2C=CC=C(c3ccc(OC4CCCCCC4)cc3)C2=N1 [Example 88, 9-[4-(cycloheptyloxy)phenyl]-3,4-dihydropyrido[2,1-c][1,2,4]thiadiazine 2,2-dioxide]		75
O=S1(=O)CCN2C=C(F)C=C(c3ccc(OC4CCCCC4)cc3)C2=N1 [Example 89, 9-[4-(cyclohexyloxy)phenyl]-7-fluoro-3,4-dihydropyrido[2,1-c][1,2,4]thiadiazine 2,2-dioxide]		85
COc1cccc(Oc2ccc(C3=CC=CN4CCS(=O)(=O)N=C34)cc2)c1 [Example 90, 9-[4-(3-methoxyphenoxy)phenyl]-3,4-dihydropyrido[2,1-c][1,2,4]thiadiazine 2,2-dioxide]		78
O=S1(=O)CCN2C=CC=C(c3ccc(OC4CCC4)cc3)C2=N1 [Example 91, 9-[4-(cyclobutyloxy)phenyl]-3,4-dihydropyrido[2,1-c][1,2,4]thiadiazine 2,2-dioxide]		81
O=S1(=O)CCN2C=CN=C(c3ccc(OC4CCCCC4)nc3)C2=N1 [Example 94, 9-[6-(cyclohexyloxy)pyridin-3-yl]-3,4-dihydropyrazino[2,1-c][1,2,4]thiadiazine 2,2-dioxide]		71
O=S1(=O)CCN2CCCC(c3ccc(-c4ccccc4)c(F)c3)C2=N1 (stereo not shown) [Example 96, 9-(2-fluorobiphenyl-4-yl)-3,4,6,7,8,9-hexahydropyrido[2,1-c][1,2,4]thiadiazine 2,2-dioxide]		74
O=S1(=O)CCN2CCCC(c3ccc(-c4ccccc4)c(F)c3)C2=N1 (stereo not shown) [Example 97, 9-(2-fluorobiphenyl-4-yl)-3,4,6,7,8,9-hexahydropyrido[2,1-c][1,2,4]thiadiazine 2,2-dioxide]		86
